Assay [1] has as its system MOLP-8 human multiple myeloma cell line. In words: Caspase-Glo 3/7 apoptosis induction assay in MOLP-8 cells. The format is cell-based. The conditions noted are these: caspase-3/7 activity, 2 hours at 37° C., averaged over all runs on all batches, read-out: MOLP8 AC50. The text has this:
MCL-1 is a regulator of apoptosis and is highly over-expressed in tumor cells that escape cell death. The assay evaluates the cellular potency of small-molecule compounds targeting regulators of the apoptosis pathway, primarily MCL-1, Bfl-1, Bcl-2, and other proteins of the Bcl-2 family. Protein-protein inhibitors disrupting the interaction of anti-apoptotic regulators with BH3-domain proteins initiate apoptosis.
The Caspase-Glo® 3/7 Assay is a luminescent assay that measures caspase-3 and -7 activities in purified enzyme preparations or cultures of adherent or suspension cells. The assay provides a proluminescent caspase-3/7 substrate, which contains the tetrapeptide sequence DEVD. This substrate is cleaved to release aminoluciferin, a substrate of luciferase used in the production of light. Addition of the single Caspase-Glo® 3/7 Reagent in an “add-mix-measure” format results in cell lysis, followed by caspase cleavage of the substrate and generation of a “glow-type” luminescent signal.
This assay uses the MOLP-8 human multiple myeloma cell line, which is sensitive to MCL-1 inhibition.
Cell cultures were maintained between 0.2 and 2.0×10^6 cells/mL. The cells were harvested by collection in 50 mL conical tubes. The cells were then pelleted at 500 g for 5 mins before removing supernatant and resuspension in fresh pre-warmed culture medium. The cells were counted and diluted as needed.
The assay reagent was prepared by transferring the buffer solution to the substrate vial and mixing. The solution may be stored for up to 1 week at 4° C. with negligible loss of signal.
Compounds were delivered in assay-ready plates (Proxiplate) and stored at −20° C.
Assays always include 1 reference compound plate containing reference compounds. The plates were spotted with 40 nL of compounds (0.5% DMSO final in cells; serial dilution; 30 μM highest conc. 1/3 dilution, 10 doses, duplicates). The compounds were used at room temperature and 4 μL of pre-warmed media was added to all wells except column 2 and 23. The negative control was prepared by adding 1% DMSO in media. The positive control was prepared by adding the appropriate positive control compound in final concentration of 60 μM in media. The plate was prepared by adding 4 μL negative control to column 23, 4 μL positive control to column 2, and 4 μL cell suspension to all wells in the plate. The plate with cells was then incubated at 37° C. for 2 hours. The assay signal reagent is the Caspase-Glo solution described above, and 8 μL was added to all wells. The plates were then sealed and measured after 30 minutes.
The activity of a test compound was calculated as percent change in apoptosis induction as follows: […]

The target in assay [2] is Myeloid Cell Leukemia 1 (Mcl-1) (Homo sapiens (Human), UniProt Q07820). In words: Terbium labeled Mcl-1 HTRF binding assay, displacement of Cy5-labeled BIM BH3 peptide. The conditions noted are these: 25 pM Tb-Mcl-1, 8 nM Cy5 Bim peptide, 60 minutes at room temperature, read-out: Tb-MCL1 Ki. On the procedure:
Terbium labeled Myeloid Cell Leukemia 1 (Mcl-1) homogeneous time-resolved fluorescence (HTRF) binding assay utilizing the BIM BH3 peptide (H2N—(C/Cy5Mal) WIAQELRRIGDEFN-OH) as the binding partner for Mcl-1.
This assay evaluated inhibition of the BH3 domain: Mcl-1 interaction by measuring the displacement of Cy5-labeled BIM BH3 peptide (H2N—(C/Cy5Mal) WIAQELRRIGDEFN-OH) in the HTRF assay format.
The following assay and stock buffers were prepared for use in the assay: (a) Stock buffer: 10 mM Tris-HCl, pH=7.5+150 mM NaCl, filtered, sterilized, and stored at 4° C.; and (b) 1× assay buffer, where the following ingredients were added fresh to stock buffer: 2 mM dithiothreitol (DTT), 0.0025% Tween-20, 0.1 mg/mL bovine serum albumin (BSA). The 1×Tb-Mcl-1+Cy5 Bim peptide solution was prepared by diluting the protein stock solution using the 1× assay buffer (b) to 25 pM Tb-Mcl-1 and 8 nM Cy5 Bim peptide.
Using the Acoustic ECHO, 100 nL of 100× test compound(s) were dispensed into individual wells of a white 384-well Perkin Elmer Proxiplate, for a final compound concentration of 1× and final DMSO concentration of 1%. Inhibitor control and neutral control (NC, 100 nL of 100% DMSO) were stamped into columns 23 and 24 of assay plate, respectively. Into each well of the plate was then dispensed 10 μL of the 1×Tb-Mcl-1+Cy5 Bim peptide solution. The plate was centrifuged with a cover plate at 1000 rpm for 1 minute, then incubated for 60 minutes at room temperature with plates covered.
The TR-FRET signal was read on an BMG PHERAStar FSX MicroPlate Reader at room temperature using the HTRF optic module (HTRF: excitation: 337 nm, light source: laser, emission A: 665 nm, emission B: 620 nm, integration start: 60 μs, integration time: 400 μs).
The BMG PHERAStar FSX MicroPlate Reader was used to measure fluorescence intensity at two emission wavelengths—665 nm and 620 nm—and report relative fluorescence units (RFU) for both emissions, as well as a ratio of the emissions (665 nm/620 nm)*10,000. The RFU values were normalized to percent inhibition as follows:
% inhibition(((NC−IC)−(compound−IC))/(NC−IC))*100
where IC (inhibitor control, low signal)=mean signal of 1× Tb-MCl-1+Cy5 Bim peptide+inhibitor control or 100% inhibition of Mcl-1; NC (neutral control, high signal)=mean signal 1×Tb-MCl-1+Cy5 Bim peptide with DMSO only or 0% inhibition
An 11-point dose response curve was generated to determine IC50 values (using GenData) based on the following equation:
where Y=% inhibition in the presence of X inhibitor concentration; Top=100% inhibition derived from the IC (mean signal of Mcl-1+inhibitor control); Bottom=0% inhibition derived from the NC (mean signal of Mcl-1+DMSO); Hillslope=Hill coefficient; and IC50=concentration of compound with 50% inhibition in relation to top/neutral control (NC).
Representative compounds of the present invention were tested according to the procedure as described above, with results as listed in the Table below (n.d. means not determined).
(In general: Time-resolved FRET reads energy transfer from a long-lived donor to a nearby acceptor.)

Read-outs that look alike come from different tables or passages of the source.

This is an account of results in patent publication US20240239812A1, “MACROCYCLIC 2-ALLYLTETRAHYDROFURANS AS INHIBITORS OF MCL-1” (JANSSEN PHARMACEUTICA NV, priority 2021, published 2024).

Myeloid Cell Leukemia 1 (Mcl-1), sequence (Q07820 whole entry): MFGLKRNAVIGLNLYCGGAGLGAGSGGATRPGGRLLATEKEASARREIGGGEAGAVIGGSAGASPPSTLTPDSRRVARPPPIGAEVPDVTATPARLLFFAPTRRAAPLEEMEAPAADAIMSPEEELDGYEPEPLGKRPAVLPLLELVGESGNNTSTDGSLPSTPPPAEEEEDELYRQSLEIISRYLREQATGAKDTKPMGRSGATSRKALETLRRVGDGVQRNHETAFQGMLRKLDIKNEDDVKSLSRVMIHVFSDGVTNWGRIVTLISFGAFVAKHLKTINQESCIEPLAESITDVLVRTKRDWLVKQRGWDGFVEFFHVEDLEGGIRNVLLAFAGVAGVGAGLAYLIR

The AC50 is the concentration giving half of the maximal activity seen. A word on the Ki: it is the dissociation constant of the complex between target and ligand, obtained from inhibition or displacement. Regarding `C[C@@H]1[C@@H](C)C/C=C(\F)C(OCCN2CCOCC2)[C@@H]2OCC[C@H]2CN2C[C@@]3(CCCc4cc(Cl)ccc43)COc3ccc(cc32)C(=O)NS1(=O)=O` (single isomer, unassigned) [Compound 4], the AC50 in assay [1] is 314 nM. In addition, the Ki in assay [2] amounted to 0.192 nM.
For `C[C@@H]1[C@@H](C)C/C=C(\F)C(OCCN2CCOCC2)[C@@H]2OCC[C@H]2CN2C[C@@]3(CCCc4cc(Cl)ccc43)COc3ccc(cc32)C(=O)NS1(=O)=O` (single isomer, unassigned) [Compound 5] the same measures were 1100 nM and 0.445 nM.
For `COc1nn(C)cc1C(=O)NS1(=O)=NC(=O)c2ccc3c(c2)N(C[C@@H]2CCO[C@H]2C(OC)/C=C/C[C@H](C)C1)C[C@@]1(CCCc2cc(Cl)ccc21)CO3` (single isomer, unassigned) [Compound 8] the same measures were 34 nM and 0.0231 nM.
In the same order, the values of `COc1nn(C)cc1C(=O)NS1(=O)=NC(=O)c2ccc3c(c2)N(C[C@@H]2CCO[C@H]2C(OC)/C=C/C[C@H](C)C1)C[C@@]1(CCCc2cc(Cl)ccc21)CO3` (single isomer, unassigned) [Compound 9] are 119 nM and 0.05 nM.
As for `COc1nn(C)cc1C(=O)NS1(=O)=NC(=O)c2ccc3c(c2)N(C[C@@H]2CCO[C@H]2C(OC)/C=C/C[C@H](C)C1)C[C@@]1(CCCc2cc(Cl)ccc21)CO3` (single isomer, unassigned) [Compound 10], the AC50 in assay [1] was 453 nM. Moreover, the Ki in assay [2] was 0.401 nM.
For `COc1nn(C)cc1C(=O)NS1(=O)=NC(=O)c2ccc3c(c2)N(C[C@@H]2CCO[C@H]2C(OC)/C=C/C[C@H](C)C1)C[C@@]1(CCCc2cc(Cl)ccc21)CO3` (single isomer, unassigned) [Compound 11] the same measures were 1310 nM and 0.94 nM.
In the same order, the values of `COC1/C(F)=C/C[C@H](C)[C@@H](C)S(=O)(=O)NC(=O)c2cnc3c(n2)N(C[C@@H]2CCO[C@@H]12)C[C@@]1(CCCc2cc(Cl)ccc21)CO3` (single isomer, unassigned) [Compound 12] are 1220 nM and 5.23 nM.
In the same order, the values of `COC1/C(F)=C/C[C@H](C)[C@@H](C)S(=O)(=O)NC(=O)c2cnc3c(n2)N(C[C@@H]2CCO[C@@H]12)C[C@@]1(CCCc2cc(Cl)ccc21)CO3` (single isomer, unassigned) [Compound 13] are 15200 nM and 35.5 nM.
For `C[C@@H]1[C@@H](C)C/C=C/C(CO)[C@@H]2OCC[C@H]2CN2C[C@@]3(CCCc4cc(Cl)ccc43)COc3ccc(cc32)C(=O)NS1(=O)=O` (single isomer, unassigned) [Compound 14], the AC50 in assay [1] turned out to be 1250 nM. Moreover, the inhibitory constant (Ki) in assay [2] came out at 0.521 nM.
In the same order, the values of `C[C@@H]1[C@@H](C)C/C=C/C(CO)[C@@H]2OCC[C@H]2CN2C[C@@]3(CCCc4cc(Cl)ccc43)COc3ccc(cc32)C(=O)NS1(=O)=O` (single isomer, unassigned) [Compound 15] are 2920 nM and 0.636 nM.
On to `COCCN(CCOC)CC1(OC)/C(F)=C/C[C@H](C)[C@@H](C)S(=O)(=O)NC(=O)c2ccc3c(c2)N(C[C@@H]2CCO[C@H]21)C[C@@]1(CCCc2cc(Cl)ccc21)CO3` (single isomer, unassigned) [Compound 18], for which, in assay [1] (Homo sapiens, MOLP-8, 2 h), the concentration at half-maximal activity (AC50) was 412 nM. The Ki in assay [2] was 0.096 nM.
For `C[C@@H]1[C@@H](C)C/C=C/C(O)[C@@H]2OCC[C@H]2CN2C[C@@]3(CCCc4cc(Cl)ccc43)COc3ccc(cc32)C(=O)NS1(=O)=O` (single isomer, unassigned) [Compound 19] the same measures were 752 nM and 0.717 nM.
For `C[C@@H]1[C@@H](C)C/C=C/C(OCCN2CCOCC2)[C@@H]2OCC[C@H]2CN2C[C@@]3(CCCc4cc(Cl)ccc43)COc3ccc(cc32)C(=O)NS1(=O)=O` (single isomer, unassigned) [Compound 20], in assay [1] (Homo sapiens, MOLP-8, 2 h), the AC50 worked out at 616 nM. Besides, the Ki in assay [2] came to 0.223 nM.
`C[C@@H]1[C@@H](C)C/C=C(\F)C(O)(CC(=O)N(C)C)[C@@H]2OCC[C@H]2CN2C[C@@]3(CCCc4cc(Cl)ccc43)COc3ccc(cc32)C(=O)NS1(=O)=O` (single isomer, unassigned) [Compound 21]: the half-maximal activity concentration (AC50) in assay [1] stood at 436 nM. Further, in assay [2], the Ki came to 0.182 nM.
Consider `C[C@@H]1[C@@H](C)C/C=C(\F)C(O)(CC(=O)N(C)C)[C@@H]2OCC[C@H]2CN2C[C@@]3(CCCc4cc(Cl)ccc43)COc3ccc(cc32)C(=O)NS1(=O)=O` (single isomer, unassigned) [Compound 22], for which the concentration at half-maximal activity (AC50) in assay [1] came out at 4830 nM. Besides, the Ki in assay [2] was determined as 0.981 nM.
In the same order, the values of `COc1nn(C)cc1C(=O)NS1(=O)=NC(=O)c2ccc3c(c2)N(C[C@@H]2CCO[C@H]2C(OC)/C(F)=C/C[C@H](C)C1)C[C@@]1(CCCc2cc(Cl)ccc21)CO3` (single isomer, unassigned) [Compound 23] are 2420 nM and 0.25 nM.
In the same order, the values of `COc1nn(C)cc1C(=O)NS1(=O)=NC(=O)c2ccc3c(c2)N(C[C@@H]2CCO[C@H]2C(OC)/C(F)=C/C[C@H](C)C1)C[C@@]1(CCCc2cc(Cl)ccc21)CO3` (single isomer, unassigned) [Compound 24] are 44 nM and 0.011 nM.
As to `COc1nn(C)cc1C(=O)NS1(=O)=NC(=O)c2ccc3c(c2)N(C[C@@H]2CCO[C@H]2C(OC)/C(F)=C/C[C@H](C)C1)C[C@@]1(CCCc2cc(Cl)ccc21)CO3` (single isomer, unassigned) [Compound 25], the concentration at half-maximal activity (AC50) in assay [1] was found to be 486 nM. For the same molecule, the Ki in assay [2] was 0.025 nM.
Consider `CO[C@@]1(CN2CCN3CCOC[C@@H]3C2)/C(F)=C/C[C@H](C)[C@@H](C)S(=O)(=O)NC(=O)c2ccc3c(c2)N(C[C@@H]2CCO[C@H]21)C[C@@]1(CCCc2cc(Cl)ccc21)CO3` [Compound 6], for which the AC50 in assay [1] (Homo sapiens, MOLP-8, 2 h) was 69 nM.
Consider `CO[C@]1(CN2CCN3CCOC[C@@H]3C2)/C(F)=C/C[C@H](C)[C@@H](C)S(=O)(=O)NC(=O)c2ccc3c(c2)N(C[C@@H]2CCO[C@H]21)C[C@@]1(CCCc2cc(Cl)ccc21)CO3` [Compound 7], for which the AC50 in assay [1] (Homo sapiens, MOLP-8, 2 h) was 88 nM.
